“Also recorded” adds a separate entry of the source. Read-outs that look alike come from different tables or passages of the source.
Key:
MN9D cells = assay: CytoTox-Glo cytotoxicity assay; assay type: cell-based; conditions: 24 h treatment, 10 μM unless stated
Protocol: Cytotoxicity assays were carried out using the CytoTox-Glo Cytotoxicity Assay Kit (Promega) according to the manufacturer's instructions. Briefly, MN9D cells were resuspended in DMEM/F-12 with 5% FBS at 2·10^5 cells/ml and added to an equal volume of two-fold concentrated compound in the same media containing 0.2% DMSO (prepared by diluting DMSO stock of the compound in warm DMEM/F-12 with 5% FBS; for DMSO control equivalent volume of DMSO was used instead of the compound stock), and immediately re-plated onto poly-D-lysine pre-treated 96-well white-walled flat clear bottom plate (Corning cat #3903) at a density of 1·10^4 cells/well (100 μL/well), 3 replicas per compound. As a background (BG) control, for each of the compound (or DMSO) equivalent volume of compound mixed with DMEM/F-12+5% FBS was plated. After 24 h treatment at 37° C., in 5% C02 incubator, 50 μL of CytoTox-Glo™ Cytotoxicity Assay Reagent was added to each well, mixed briefly by orbital shaking and incubated for 15 min at ambient temperature. Luminescence signal corresponding to dead cells was measured using Biotek Synergy H4 hybrid microplate reader. After the measurement, 50 μL of Lysis Reagent was added to each well, mixed, incubated for 15 min at ambient temperature, and total luminescence was measured. The percentage of viable cells was then calculated as follows: Percent Viable Cells (%)=100% (Total cell luminescence (test compound)—Dead cell luminescence (test compound))/(Total cell luminescence (DMSO)—Dead cell luminescence (DMSO)).

Nurr1 LBD Arg563Ala = biological target: T1, Nurr1 LBD Arg563Ala (Homo sapiens, UniProt P43354, R563A); assay: MST binding to Arg563Ala mutant Nurr1 LBD; conditions: for Amplitude: Table 1, MST amplitude, R563A; for Response Amplitude: Table 2, MST, Arg563Ala
T1 construct: Mutants of LAP2 Nurr1 were prepared by GenScript starting from LAP2 Nurr1 vector; made in house
T1 sequence (P43354 with tags, fused parts or gaps R563A): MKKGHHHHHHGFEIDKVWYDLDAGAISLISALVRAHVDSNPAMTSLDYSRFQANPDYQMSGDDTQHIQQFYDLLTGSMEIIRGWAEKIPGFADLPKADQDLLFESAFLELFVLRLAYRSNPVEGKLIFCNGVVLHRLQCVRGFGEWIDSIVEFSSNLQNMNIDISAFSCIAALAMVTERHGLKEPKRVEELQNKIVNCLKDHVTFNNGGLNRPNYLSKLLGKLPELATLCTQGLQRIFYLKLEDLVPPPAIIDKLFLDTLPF
Protocol: The plasmid used for the expression of LAP2-tagged Nurr1 LBDs (LAP2 Nurr1) was prepared by GenScript (Piscataway, N.J.) as the product of gene synthesis and subcloning into pET-21a(+) Vector (GenScript) using the Ndel and Xhol sites within the MCS. Mutants of LAP2 Nurr1 were prepared by GenScript starting from LAP2 Nurr1 vector.
(§1) Concentration-dependent association of the indoles with the Nurr1 LBD was carried out using microscale thermophoresis. Stock solutions (10 mM in DMSO) of each indole were serially diluted (200 μM indole, 0.5× dilutions down to 0.0061 μM) in MST buffer (25 mM HEPES, pH 7.4, 150 mM NaCl, and 0.1% Pluronic F127) containing 2% DMSO. The dilutions were carried out with 4% DMSO in the MST buffer for a total of 16 concentrations. Equivalent volumes and concentrations of the fluorescently labeled Nurr1 LBD in MST buffer were added to each ligand dilution in the series to reach a final concentration of 75 nM labeled protein. After incubating for 20 minutes, the samples were loaded into Monolith NT.115 Capillaries (Nanotemper).
(§2) Data were collected using the Monolith NT.115 System (Nanotemper), with settings for all samples at 40% excitation power and 40% MST power. The initial fluorescence was recorded for 3 sec and the thermophoresis fluorescence response was recorded for 20 sec. The data was inspected with Palmist software^5, and data points affected by initial fluorescence quenching or photobleaching were eliminated. The fluorescent response for each sample was normalized to the initial fluorescence using Palmist software to provide the values of thermophoresis (Fn). The resulting data was used to generate a plot of the change in thermophoresis (Fn-Fn0, where Fn=thermophoresis and Fn0=thermophoresis response in unbound range) versus concentration of the ligand. GraphPad Prism v. 8.3.0 software was used to fit the resulting data to a mass action equation for a specific binding with Hill slope, solving for KD: Fn-Fn0═Fmax·[L]^n/(KD^n+[L]^n), where Fmax=maximum amplitude of thermophoresis, [L]=concentration of the ligand at a specific point, KD=dissociation constant, nH=Hill Coefficient.

Nurr1 LBD (wildtype) = biological target: T2, Nurr1 LBD (wildtype) (Homo sapiens, UniProt P43354); assay: Microscale thermophoresis (MST) binding to wildtype Nurr1 LBD; conditions: for Kd: read-out: KD; for Binding to the Nurr1 LBD (in words): MST; for Amplitude: Table 1, MST amplitude, WT; for Response Amplitude: Table 2, MST, Wildtype
T2 construct: made in house
T2 sequence (P43354 with tags, fused parts or gaps): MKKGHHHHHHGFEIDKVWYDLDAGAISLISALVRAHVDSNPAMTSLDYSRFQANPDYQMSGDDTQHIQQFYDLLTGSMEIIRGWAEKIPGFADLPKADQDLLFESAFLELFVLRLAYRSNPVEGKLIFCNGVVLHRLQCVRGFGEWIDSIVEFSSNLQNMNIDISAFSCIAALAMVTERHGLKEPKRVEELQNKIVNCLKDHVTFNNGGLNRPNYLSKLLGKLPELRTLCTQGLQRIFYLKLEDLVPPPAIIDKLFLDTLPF
Protocol: as §1, §2
To investigate the potential impact of compound nano-aggregation on binding affinity, we used dynamic light scattering to inspect the aggregation of 5-chlorindole in solution and repeated the MST binding experiments in the presence of increasing concentrations of the surfactant Pluoronic F127 (FIGS. 12A-12D). […] As well, increasing concentrations of the surfactant Pluronic F127 had small effects (<2-fold) on the affinity of 5-chloroindole for the Nurr1 LBD (FIGS. 12A-12D).

Row | SMILES | Cytotoxicity / cell viability (MN9D cells) | Amplitude (Nurr1 LBD Arg563Ala) | Amplitude (% change) (Nurr1 LBD Arg563Ala; Table 1, R563A relative to WT) [%] | Response Amplitude (Nurr1 LBD Arg563Ala) | Binding to the Nurr1 LBD (in words) (Nurr1 LBD (wildtype)) | Kd (Nurr1 LBD (wildtype); Nurr1 LBD) [µM] | Amplitude (Nurr1 LBD (wildtype)) | Kd (Nurr1 LBD (wildtype); Table 1, Nurr1 variant WT) [µM] | Response Amplitude (Nurr1 LBD (wildtype)) | further results
1 | Clc1ccc2[nH]ccc2c1 [5-chloroindole] | no significant effect on cell viability; also recorded: not cytotoxic; also recorded: non-cytotoxic | 23 + 2 | −66 | 19 + 2 (****) | saturable binding; also recorded: comparable to DHI | 15 | 68 + 4 | 25 | 54 + 2 | Kd (Nurr1 LBD Arg563Ala; Table 1, Nurr1 variant R563A, read-out: KD): 13 µM; KD (% change) (Nurr1 LBD Arg563Ala; Table 1, R563A relative to WT): −48%; Kd (Nurr1 LBD Arg563Ala; Table 2, Arg563Ala, read-out: Affinity (KD)): 8.3 µM; Hill coefficient nH (Nurr1 LBD (wildtype); 0.1% Pluronic F127): 2; Hill coefficient nH (Nurr1 LBD (wildtype); 0.2% Pluronic F127): 2; Kd (Nurr1 LBD (wildtype); 0.2% Pluronic F127): 8.3 ± 0.7 µM; Hill coefficient nH (Nurr1 LBD (wildtype); 0.5% Pluronic F127): 1; Kd (Nurr1 LBD (wildtype); 0.5% Pluronic F127): 10.9 ± 0.3 µM; Hill coefficient nH (Nurr1 LBD (wildtype); 1.0% Pluronic F127): 1; Kd (Nurr1 LBD (wildtype); 1.0% Pluronic F127): 9.1 ± 0.4 µM
2 | Brc1ccc2[nH]ccc2c1 [5-bromoindole] | somewhat toxic to cells under certain conditions | ≤10 | ≥−86 | ≤10 (****) | saturable binding | 5 | 72 + 8 | 10 | 50 + 4 | Binding to Arg563Ala mutant Nurr1 LBD (in words) (Nurr1 LBD Arg563Ala; MST): completely eliminated; Amplitude (% change) (Nurr1 LBD (wildtype); Table 1, WT (reference)): 0

Source: patent US20230255934A1, “NURR1 RECEPTOR MODULATORS AND USES THEREOF” (The Regents of the University of California, priority 2020, published 2023)
